Consider seven compounds from patent publication US8865626B2, “Synergistically active herbicidal agents that are compatible with cultivated plants and contain herbicides from the group of benzoylpyrazoles” (Bayer Cropscience AG, priority 2006, dated 2014).

Assay type in all cases: in vivo
One data set has as its system STEME. Nature of the data set: Herbicidal post-emergence action against STEME. The settings on record: visual rating 3 to 4 weeks after treatment. How it is done:
(§1) Seeds of monocotyledonous and dicotyledonous weed and crop plants are placed into sandy loam in wood fiber pots or in plastic pots, covered with soil and cultivated in a greenhouse, including during the vegetation period outdoors outside of the greenhouse, under good growth conditions. 2-3 weeks after sowing, the test plants are treated at the one- to three-leaf stage. The test compounds, formulated as wettable powders (WP) or liquid (EC) are, in various dosages with a water application rate of 300 I/ha (converted), with added wetting agent (0.2 to 0.3%), sprayed onto the plants and the surface of the soil. 3 to 4 weeks after the treatment of the test plants, the effect of the preparations is rated visually in comparison to untreated controls (herbicidal effect in percent (%): 100% effect=plants have died, 0% effect=like control plants).
(§2) If it is additionally to be tested as to whether safeners can improve the plant compatibility of test substances in the case of crop plants, the following options are used for applying the safener: • seeds of the crop plants are, before sowing, dressed with the safener substance (the amount of safener is stated in percent, based on the weight of the seed) • before the application of the test substances, the crop plants are sprayed with the safener at a certain application rate per hectare (usually 1 day before the application of the test substances) • the safener is applied together with the test substance as a tank mix (the amount of safener is stated in g/ha or as a ratio, based on the herbicide).
(§3) By comparing the effect of the test substances on crop plants without or with safener treatment, it is possible to assess the effect of the safener substance.

Another data set concerns LAMPU. Briefly: Herbicidal post-emergence action against LAMPU. The settings on record: visual rating 3 to 4 weeks after treatment. The procedure:
as §1, §3

A further data set relates to AVEFA. Nature of the data set: Herbicidal post-emergence action against AVEFA. The following applies: visual rating 3 to 4 weeks after treatment. How it is done: as §1, §3
The subject of a further data set is MATIN. Briefly: Herbicidal post-emergence action against MATIN. The following applies: visual rating 3 to 4 weeks after treatment. The procedure: as §1, §2, §3
A further data set concerns summer wheat. Briefly: Post-emergence damage to crop plant (safener test). How it is done:
as §1, with “plants). […]” for “plants).”

A further data set deals with VERHE. Briefly: Herbicidal post-emergence action against VERHE. The following applies: visual rating 3 to 4 weeks after treatment. The procedure: as §1, §3

`Nc1cc(Cl)nc(C(=O)O)c1Cl` [aminopyralid]: the “Activity against STEME” value in the data set on STEME (dosage 150 g of a.i./ha) stood at 65%.

On to `CCOC(=O)C(Cl)Cc1cc(-n2nc(C)n(C(F)F)c2=O)c(F)cc1Cl` (centres unmarked) [carfentrazone-ethyl], for which the “Activity against LAMPU” value with LAMPU (dosage 25 g of a.i./ha) is 10%.

For `COCc1cnc(C2=NC(C)(C(C)C)C(=O)N2)c(C(=O)O)c1.N` (centres unmarked) [imazamox-ammonium], the “Activity against AVEFA” value in the data set on AVEFA (dosage 25 g of a.i./ha) came to 60%.

Consider `CCOC(=O)C1=NN(c2ccc(Cl)cc2Cl)C(C)(C(=O)OCC)C1` (centres unmarked) [mefenpyr-diethyl], for which, in the data set on MATIN (dosage 9.4 g of a.i./ha), the “Activity against MATIN” value worked out at 0%. Moreover, the “Activity against STEME” value in the data set with STEME (dosage 9.4 g of a.i./ha) is given as 0%.

Turning to `COC(=O)c1ccc(CNS(C)(=O)=O)cc1S(=O)(=O)NC(=O)Nc1nc(OC)cc(OC)n1` [mesosulfuron-methyl], in the data set on MATIN (dosage 7.5 g of a.i./ha), the “Activity against MATIN” value is on record as 50%. For the same compound, the “Damage to summer wheat” value in the data set on summer wheat (dosage 7.5 g of a.i./ha) came out at 15%.

Take `Cc1nn(C)c(O)c1C(=O)c1ccc(C(F)(F)F)cc1S(C)(=O)=O` [pyrasulfotole]: the “Activity against MATIN” value with MATIN (dosage 12.5 g of a.i./ha) turned out to be 70%. Besides, the “Activity against LAMPU” value with LAMPU (dosage 12.5 g of a.i./ha) was 80%. Besides, the “Activity against AVEFA” value with AVEFA (dosage 12.5 g of a.i./ha) was 40%. In addition, the “Damage to summer wheat” value in the data set on summer wheat (dosage 12.5 g of a.i./ha) is 20%. Also, the “Activity against VERHE” value in the data set on VERHE (dosage 12.5 g of a.i./ha) worked out at 40%. Also, the “Activity against STEME” value in the data set on STEME (dosage 12.5 g of a.i./ha) turned out to be 60%.

For `COc1cc(OC)n2nc(NS(=O)(=O)c3c(C(F)(F)F)ccnc3OC)nc2n1` [pyroxsulam], the “Activity against VERHE” value with VERHE (dosage 5 g of a.i./ha) turned out to be 80%.
